Test results from patent publication US20100120039A1, “METHODS AND COMPOSITIONS IN BREAST CANCER THERAPY RESISTANCE” (priority 2008, published 2010).
Several values for one entry are separate records, joined by “and”; a condition that tells them apart may be missing. Equal values may be shown once. Entries after “also recorded” stand apart in the source; their conditions may differ.

Columns and labels:
[1] = test system: MCF-7 K303R ERα-overexpressing cells; test: Anchorage-independent soft agar growth assay; type: cell-based, human; settings: for reduction in colonies: Tam 100 nM
MCF-7 Arom 1 cells [2] = test: Anchorage-independent soft agar growth assay; type: cell-based, human; settings: for colony growth: ICI 182,780 1 μM
[3] = test system: K303R Arom 1 and Arom 2 cells; test: Anchorage-independent soft agar growth assay; type: cell-based, human; settings: for AD-induced colony formation: AD 10 nmol/L + Ana 1 μmol/L, 14 days; for colony growth: ICI 182,780 1 μM
[4] = test system: pAkt in K303R Arom 1 and 2 cells; test: Immunoblot of phosphorylated Akt; type: cell-based, human; settings: for basal Akt phosphorylation: LY 10 μmol/L, PI-103 1 μmol/L, Akti1/2 1 μmol/L, 30 min
[5] = test system: PARP cleavage in K303R Arom 1 cells; test: Immunoblot of PARP proteolysis; type: cell-based, human; settings: AD 10 nmol/L + Ana 1 μmol/L, 24 h
[6] = test system: PARP cleavage in MCF-7 Arom 1 cells; test: Immunoblot of PARP proteolysis; type: cell-based, human; settings: AD 10 nmol/L + Ana 1 μmol/L, 24 h
[7] = test system: K303R ERα-Arom pools (MCF-7); test: Soft agar assay in stable pools; type: cell-based, human; settings: AD 10 nmol/L + Ana 1 μmol/L
[8] = test system: pAkt in MCF-7 Arom 1 cells; test: Immunoblot of phosphorylated Akt; type: cell-based, human
MCF-7 Arom 1 cells [9] = test: MTT growth assay; type: cell-based, human; settings: AD 10 nM + Ana, 9 days, WT ERα cells
K303R Arom 1 cells [10] = test: MTT growth assay; type: cell-based, human; settings: AD 10 nM + Ana, 9 days, K303R mutant cells
aromatase = target: T1, aromatase (Homo sapiens, UniProt P11511); test: Aromatase activity assay (3H-water release); type: biochemical; settings: both cells (MCF-7 and MCF-7-K303R aromatase transfectants)
T1 construct: Full-length human aromatase cDNA was amplified from the pCMV6-Arom plasmid; expressed in transfected cells; host or cells: MCF-7 parental and YFP-K303R ERα MCF-7 clones, stably transfected with pZeo-Arom
T1 sequence (P11511 1-503): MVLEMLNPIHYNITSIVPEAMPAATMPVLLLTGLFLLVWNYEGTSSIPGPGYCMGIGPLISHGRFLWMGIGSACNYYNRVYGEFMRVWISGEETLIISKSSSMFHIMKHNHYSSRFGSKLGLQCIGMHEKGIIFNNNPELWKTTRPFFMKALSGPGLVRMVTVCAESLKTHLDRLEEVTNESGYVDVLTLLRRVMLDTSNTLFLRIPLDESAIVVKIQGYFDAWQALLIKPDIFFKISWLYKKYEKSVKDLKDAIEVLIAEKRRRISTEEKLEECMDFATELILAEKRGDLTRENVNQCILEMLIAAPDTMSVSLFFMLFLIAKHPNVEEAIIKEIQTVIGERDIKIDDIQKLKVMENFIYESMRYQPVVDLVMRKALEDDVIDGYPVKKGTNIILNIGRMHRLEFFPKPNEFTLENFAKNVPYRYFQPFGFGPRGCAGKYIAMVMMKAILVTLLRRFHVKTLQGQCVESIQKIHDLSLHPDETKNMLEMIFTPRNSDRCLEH

CHO K303R P cells = test: Soft agar assay in stable pools; type: cell-based, Chinese hamster; settings: AD 10 nmol/L + Ana 1 μmol/L
MCF-7 Arom 1 cells [11] = test: ELISA cell death detection assay; type: cell-based, human
K303R Arom 1 cells [12] = test: ELISA cell death detection assay; type: cell-based, human
[13] = test system: K303R ERα ERE-luciferase reporter; test: ERα transactivation assay (ERE-luciferase) in CHO cells; type: cell-based, Chinese hamster; settings: LY 10 μmol/L or ICI 1 μmol/L
[14] = test system: AP-1 activity in MCF-7 K303R cells; test: AP-1 luciferase reporter assay; type: cell-based, human
MCF-7 WT cells = test: Anchorage-independent soft agar growth assay; type: cell-based, human; settings: Tam 100 nM, 14 days
[15] = test system: MCF-7 WT ERα-expressing cells; test: MTT growth assay with growth factors; type: cell-based, human; settings: Tam alone
[16] = test system: MCF-7 K303R ERα-expressing cells; test: MTT growth assay with growth factors; type: cell-based, human
[17] = test system: phosphorylated HER2, Akt, MAPK in MCF-7 WT cells; test: Immunoblot after S305 blocking peptide delivery and heregulin; type: cell-based, human; settings: peptide 4 μg/well 4 h, heregulin 10 min
[18] = test system: phosphorylated S305 ERα, HER2, Akt, MAPK in MCF-7 K303R cells; test: as above; type: cell-based, human; settings: peptide 4 μg/well 4 h, heregulin 10 min
[19] = AD 10 nmol/L + Ana 1 μmol/L versus AD

For 17β-Estradiol [E2], the “soft agar growth at lowest E2 concentration” value ([1]; E2 10^−12, 14 days, p=0.005) was “significantly enhance”.
With `O=c1[nH]c2ccccc2n1C1CCN(Cc2ccc(-c3nc4cc5nc[nH]c5cc4nc3-c3ccccc3)cc2)CC1` [Akti1/2, Akt inhibitor VIII isozyme-selective] the “inhibition of basal, AD-stimulated and Ana-stimulated growth” value (MCF-7 Arom 1 cells [2]; Akti1/2 1 μmol/L) was ~30%, the inhibition of growth ([3]; Akti1/2 1 μmol/L) was > 90% and the “basal Akt phosphorylation” value [4] was “effectively blocked”.
In the case of `CC(C)(C#N)c1cc(Cn2cncn2)cc(C(C)(C)C#N)c1` [Ana, anastrozole], the PARP cleavage [5] is reported as “unchanged”, the “PARP proteolysis compared with AD treatment” value [6] is reported as “increased proteolysis” and the AD-stimulated colony growth (MCF-7 Arom 1 cells [2]; AD 10 nmol/L + Ana 1 μmol/L, 14 days) is reported as “completely abrogated”. The AD-induced colony formation [3] was “did not inhibit; also recorded: unable to inhibit”, the AD-induced colony formation ([3]; listed as AN) was “unable to inhibit” and the AD-stimulated growth [7] was “unable to reduce; also recorded: further stimulated”. The “AD-induced pAkt levels” value ([8]; AD 10 nM + Ana 1 μM, 1 h) was “reduced”, the “constitutive pAkt levels” value ([4]; AD 10 nM + Ana 1 μM, 1 h) was “not affected; also recorded: unaffected” and the “decrease of AD-stimulated growth” value (MCF-7 Arom 1 cells [9]) was 47% and ~40%. For the same compound, the “decrease of AD-stimulated growth” value (MCF-7 Arom 1 cells [9]; listed as AN) was 40%, the “effect on AD-stimulated growth” value (K303R Arom 1 cells [10]) was “had no effect” and the “reduction of aromatase activity” value (aromatase) was 95%. For the same compound, the AD-stimulated growth (CHO K303R P cells) was “did not reverse”, the cell apoptosis (MCF-7 Arom 1 cells [11]; [19]) was “significant increase” and the apoptotic response (K303R Arom 1 cells [12]; [19]) was “no change”.
For `C[C@]12CC[C@@H]3c4ccc(O)cc4C[C@@H](CCCCCCCCC[S+]([O-])CCCC(F)(F)C(F)(F)F)[C@H]3[C@@H]1CC[C@@H]2O` (stereo partly shown) [ICI 182,780, fulvestrant], the colony growth (MCF-7 Arom 1 cells [2]) was “significantly suppressed”, the colony growth (MCF-7 Arom 1 cells [2]; listed as ICI182,780) was “suppressed” and the colony growth [3] was “significantly suppressed”. For the same compound, the colony growth ([3]; listed as ICI182,780) was “suppressed”, the “basal pAkt” value ([8]; ICI182,780 1-48 h) was “not basal pAkt” and the “pAkt with short-term treatment” value ([4]; ICI 1 μmol/L, 1-30 min) was “no changes”. The pAkt levels ([4]; ICI 1-48 h) was “decrease” and the ERE activity [13] was “inhibited”.
With `O=c1cc(N2CCOCC2)oc2c(-c3ccccc3)cccc12` [LY294002] the apoptosis induction (MCF-7 Arom 1 cells [11]; LY 10 μmol/L, 72 h) was 1.7 fold and the “increase in the apoptotic rate compared with AD” value (K303R Arom 1 cells [12]; LY 10 μmol/L, 72 h) was 3.6 fold.
In the case of `COc1cccc(-c2cc(=O)c3ccccc3o2)c1N` [PD98059], the “antiproliferative effects on basal growth” value ([3]; PD98059 10 μM) is reported as “not observed”, the “reversal of the AI^R phenotype” value ([3]; PD98059 10 μM) is reported as “did not reverse” and the “reversal of the AI^R phenotype” value ([3]; PD98059 10 μM, listed as PD) is reported as “unable to reverse”.
`Oc1cccc(-c2nc(N3CCOCC3)c3oc4ncccc4c3n2)c1` [PI-103] was tested, and the “basal Akt phosphorylation” value [4] was “effectively blocked”.
With `CC/C(=C(\c1ccccc1)c1ccc(OCCN(C)C)cc1)c1ccccc1` [Tam, tamoxifen] the “growth factor-induced AP-1 activity” value ([14]; presence of Tam) was “unable to reverse”, the heregulin-induced anchorage-independent growth ([1]; Tam, 14 days) was “unable to block; also recorded: failed to inhibit” and the reduction in colonies ([1]; estrogen (E2 1 nM)-stimulated, 14 days) was 54%. The reduction in colonies ([1]; heregulin (2 ng/ml)-stimulated, 14 days) was 21%, the reduction in colonies (MCF-7 WT cells; estrogen (E2 1 nM)-stimulated) was 78% and the reduction in colonies (MCF-7 WT cells; heregulin (2 ng/ml)-stimulated) was 96%. For the same compound, the control growth [15] was “inhibited”, the growth ([16]; Tam alone, MTT) was “enhanced” and the “growth when stimulated with growth factors” value ([16]; Tam with heregulin, EGF or IGF-1, MTT) was “super-agonist”.
For “IKRSKKNSLALSC (blocking sequence) [S305 blocking peptide]”, the “heregulin-induced phosphorylation of downstream signaling molecules (HER2, Akt, MAPK)” value [17] was “abrogated; also recorded: inhibited”, the “phosphorylation of the mutant receptor at S305” value [18] was “abrogated” and the “heregulin-induced phosphorylation of downstream signaling molecules (HER2, Akt, MAPK)” value ([18]; more pronounced than in WT) was “abrogated; also recorded: inhibited”.
heregulin was tested, and the AP-1 activity ([14]; only in mutant-expressing cells) was “induced high AP-1 activity”.
